One molecule from US10945989B2, “Perinatal treatment with a flavonoid agonist of the TrkB receptor for BDNF rescues neurogenesis and behavior in the Ts65Dn mouse model of DS” (ALMA MATER STUDIORUM—Universita' di Bologna, priority 2017, dated 2021) can be followed below.

In experiment [1] the test system is NPCs from the SVZ of Ts65Dn mice. Put plainly: Proliferation of NPC cultures (Cell Titer-Glo). In kind it is cell-based, mouse. The note with it: 96 h. The protocol:
Cells were isolated from the subventricular zone (SVZ) of the lateral ventricle and the subgranular zone (SGZ) of the hippocampal dentate gyrus (DG) of newborn (P1-P2) euploid and Ts65Dn mice. Briefly, brains were removed, the SVZ and SGZ regions were isolated and individually collected in ice-cold PIPES buffer pH 7.4. After centrifugation, tissue was digested for 10 min at 37° C. using Trypsin/EDTA 0.25% (Life Technologies) aided by gentle mechanical dissociation. Cell suspension from each individual mouse was plated onto 25 cm^2 cell-culture flask (Thermo Fisher Scientific) and cultured as floating neurospheres in medium containing basic fibroblast growth factor (bFGF, 10 ng/ml; Peprotech) and epidermal growth factor (EGF, 20 ng/ml; Peprotech) using an established protocol (Meneghini et al., 2014). […] Cell proliferation was quantified as relative luminescence units (RLU) values using Cell Titer-Glo viability assay reagent (Promega) on aVictor^3-V plate reader (PerkinElmer). […] In each experiment, five fields/well (corresponding to about 150-200 cells/well) were counted with a 60× objective by a Leica DMIRB inverted fluorescence microscope. Immunoreactive cells were counted and their percentage over total viable cells was calculated. […]
Background: ATP-based viability assays read luminescence as a measure of living cells.

The subject of another experiment is Ts65Dn and euploid mice. Description: Morris Water Maze, learning phase. Format: in vivo, mouse. The protocol: Euploid and Ts65Dn mice received a daily subcutaneous injection (at 9-10 am) of 7,8-DHF (5.0 mg/kg in vehicle) or vehicle from postnatal day 3 (P3) to postnatal day P45-P50. […] These mice will be called here P45 mice. Mice were behaviorally tested in the 6 days that preceded the day of sacrifice (FIG. 2B).
Mice were trained in the MWM task to locate a hidden escape platform in a circular pool, using a previously used protocol (Stagni et al., 2016), that was altogether based on a published protocol (Vorhees and Williams, 2006). The apparatus consisted of a large circular water tank (1.00 m diameter, 50 cm height) with a transparent round escape platform (10 cm^2). The pool was virtually divided into four equal quadrants identified as northeast, northwest, southeast, and southwest. The tank was filled with tap water at a temperature of 22±1.0° C. Mice are more prone to undergo hypothermia than rats and in the MWM hypothermia may cause a reduction in swimming speed (livonen et al., 2003). […] This is consistent with evidence that a temperature of 22° C. is “high enough” to reduce stress and potential hypothermia and “low enough” to maintain the animals' motivation to escape the pool (Costa et al., 2010). The tank was filled with water up to 0.5 cm above the top of the platform and the water was made opaque with milk. The platform was placed in the tank in a fixed position (in the middle of the south-west quadrant). The pool was placed in a large room with various intra (squares, triangles, circles and stars) and extra-maze visual cues. Each mouse was tested in one session of 4 trial on the first day and in two sessions of 4 trials in the following 4 days with an inter-session interval of 45 min. A video camera was placed above the center of the pool and connected to a videotracking system (Ethovision 3.1; Noldus Information Technology B.V., Wageningen, Netherlands). Mice were released facing the wall of the pool from one of the following starting points: North, East, South, or West and allowed to search for up to 60 s for the platform. […] During the inter-trail time (10 s) mice were placed in an empty cage. For the learning phase, we evaluated the latency to find the hidden platform, time in periphery, percentage of time in periphery, path length, proximity to the platform, and swimming speed. Retention was assessed with one trial (probe trial), on the sixth day, 24 h after the last acquisition trial, using the same starting point for all mice. Mice were allowed to search for up to 60 s for the platform. For the probe trial, the latency of the first entrance in the former platform zone, the frequency of entrances in the former quadrant, the proximity to the former platform position (Gallagher's test), the percentage of time spent at the periphery (thigmotaxis), the swimming speed and the percentage of time spent in each quadrant were employed as measures of retention of acquired spatial preference. All experimental sessions were carried out between 9.00 am and […]. The following number of mice were tested. Untreated euploid mice: n=19; untreated Ts65Dn mice: n=14; 7,8-DHF-treated euploid mice: n=17; 7,8-DHF-treated Ts65Dn mice: n=16. Three untreated euploid mice (yielding n=16), one 7,8-DHF-treated euploid mouse (yielding n=16) and one 7,8-DHF-treated Ts65Dn mouse (yielding n=15) were excluded from MWM analysis due to thigmotaxis for a whole recording session.

Consider `O=c1cc(-c2ccccc2)oc2c(O)c(O)ccc12` [7,8-DHF, 7,8-dihydroxyflavone], for which the “proliferation rate of trisomic NPCs” value in experiment [1] (highest concentration 10.0 μM) is given as “reduced proliferation”; in experiment [1] (tested concentrations 0.3-10.0 μM, vs vehicle), “none of the tested concentrations was able to increase the proliferation rate”. Moreover, the “time spent at the periphery (thigmotaxis)” value is reported as “spent a similar time as euploid mice” with Ts65Dn and euploid mice (Ts65Dn mice); “reduction in thigmotaxis” with Ts65Dn and euploid mice (euploid mice). In addition, the “escape latency (learning phase)” value in the experiment with Ts65Dn and euploid mice (Ts65Dn mice, 5.0 mg/kg P3-P45-50, save for day 3) is given as “not statistically different from that of untreated euploid mice”; in the experiment on Ts65Dn and euploid mice (euploid mice, vs untreated, significant on day 2 only), “latency was reduced”. Further, in the experiment on Ts65Dn and euploid mice (Ts65Dn mice, day 5), the path length result is recorded as “shorter in comparison with their untreated counterparts”. Besides, the “proximity (distance from the platform)” value in the experiment on Ts65Dn and euploid mice (Ts65Dn mice, day 5) was “significantly reduced in comparison with their untreated counterparts”. In addition, in the experiment with Ts65Dn and euploid mice (Ts65Dn mice, significant vs untreated counterparts on day 5), the “percentage of time spent at the periphery” value is “underwent a reduction”.
